The test system of test [1] is LTP in hippocampal CA1 region (Schaffer collateral pathway). Kind of test: fEPSP / LTP extracellular recording in hippocampal CA1 transverse slice. The arrangement: species or system ICR mouse. The following applies: 1 hour after HFS. As for the experimental part: Field excitatory postsynaptic potential (fEPSP) was measured in the CA1 region (Schaffer collateral pathway) of the hippocampus of an ICR mouse using the extracellular recording technique.
Hippocampal slice for fEPSP experiment was obtained from young (4-7 weeks old) male ICR mice. The mice were anesthetized with isoflurane prior to decapitation. After quickly taking out the brain of the mouse from the skull, the brain was cooled with ice and then put in a highly concentrated sucrose solution (sucrose 201 mM, KCl 3 mM, NaH2PO4 1.25 mM, MgCl2 3 mM, CaCl2 1 mM, NaHCO3 26 mM and D-glucose 10 mM) of pH 7.3 with oxygen (95% O2 and 5% CO2) supplied thereto. After isolating the hippocampus from the brain, transverse slices were obtained by cutting with a vibratome (Ted Pella, Redding, Calif., USA) in the high-concentration sucrose solution. Before extracellular recording, the transverse slice was incubated at 30° C. in a normal artificial cerebrospinal fluid (nACSF; NaCl 126 mM, KCl 3 mM, NaH2PO4 1.25 mM, MgSO4 1.3 mM, MgSO4 1.3 mM, CaCl2 2.4 mM, NaHCO3 26 mM and D-glucose 10 mM) of […] of pH 7.3 with oxygen supplied thereto. […]
In order to induce long-term potentiation (LTP), high-frequency stimulation (HFS, 2 trains, 100 Hz, 1s duration, 15 intervals) was applied with the same strength as that of the baseline experiment. Average LTP was calculated by averaging 20 fEPSP slopes at 55 to 60 minutes after the application of the high-frequency stimulation.
Extracellular field potential was recorded using a microelectrode AC amplifier model 1800 (A-M Systems, Inc., USA). The response signal was low-pass filtered at 5 kHz, digital sampled at 10 kHz using a Digidata 1322 A/D converter, and then analyzed using pCLAMP 9.0 software (Axon Instruments). […] The difference between two means was analyzed by an unpaired Student's t-test. p<0.05 was evaluated as significant. […]

In test [2] the target is T1, (Aβ)12 (Homo sapiens, UniProt P05067).
T1 construct: purchased Biopeptide Co; host or cells: chemical synthesis; oligomerised in house (HFIP, DMSO, HEPES pH 7.4, 37 °C, 24 h)
Kind of test: CD spectrum of (Aβ)12 after treatment with adamantane derivatives. The following applies: for change in the CD spectrum of (Aβ)12: (Aβ)12 treated with adamantane derivative, 37° C., 190-250 nm; for effect of deforming the β-turn structure (rank order): among the adamantane derivatives tested. The method, then: (§1) (Aβ)12 was prepared according to a known method. Specifically, synthetic Aβ1-42 peptide (Biopeptide Co.) was suspended at room temperature in 100% 1, 1, 1, 3,3,3-hexafluoro-2-propanol (HFIP). After incubation for 30 minutes, HFIP was removed by evaporating under mild nitrogen flow. Then, Aβ1-42 was suspended again in dimethyl sulfoxide (DMSO) at a concentration of 5 mM and then diluted with mM 2-[4-(2-hydroxyethyl)-1-piperazinyl]ethanesulfonic acid (HEPES; pH 7.4) to a final concentration of 110 μM. The resulting solution was incubated at 37° C. for 24 hours while stirring at 500 rpm using a micro stir bar. After centrifugation at 4000 g for 30 minutes, thus obtained 56-kDa Aβ1-42 dodecamer, i.e. (Aβ)12, was concentrated (50 kDa and 100 kDa cut-off). The presence of (Aβ)12 in the concentrated sample was identified by sodium dodecyl sulfate polyacrylamide gel electrophoresis (SDS-PAGE). Its spherical structure was confirmed by atomic force microscopy. For cell culturing experiment, a 2 μM solution of (Aβ)12 was diluted using serum-free Dulbecco's modified Eagles medium (DMEM) to a final concentration of 33 nM, which corresponds to a monomer concentration of about 400 nM.
Circular dichroism (CD) spectra are useful in determining the secondary structure of proteins in solution. CD spectrum was obtained using a Jasco-810 instrument at high-sensitivity mode (5 mdeg), with a time constant of 4 s, at a scan rate of 100 nm/min, for 30 cycles. The spectrum was obtained at 37° C. in the wavelength region from 190 nm to 250 nm.
Referring to FIG. 5, when the amyloid oligomer was treated with the adamantane derivatives, the intensity of the positive band of the oligomer at 195 nm decreased and the positive band at 205 nm shifted toward longer wavelength. This means that the adamantane derivatives induce deformation of the oligomer structure by changing the configuration of the β-sheets. […] Although a detailed structure of the deformed oligomer is not clear, the decrease of intensity at 205 nm is due to the β-turn structure.

Test [3] has as its system Aβ1-40. Kind of test: In vivo test in Tg-APP/PS1 mice, ELISA of insoluble Aβ1-40. More on the design: species or system Tg-APPswe/PS1dE9 mouse. The following applies: single ICV injection of TAMA (1.274 μg), 24 hours, prefrontal cortex, 7.5-month-old mice. The method, then: (§2) Transgenic APPswe/PS1dE9 (Tg-APP/PS1) mouse overexpressing human APP and PS1 mutations was crossbred with hybrid mouse of C57BL6 and C3H until the same genetic background as the original Tg-APP/PS1 mouse was attained. The mice were accommodated in a cage with temperature and humidity controlled and 12 hour night/day cycles (lighting began at 7 a.m.), 1 to 3 mice per cage. The mice were freely given water and feed. All the mice were handled according to the Guideline for Animal Breeding and Management of the College of Pharmacy, Ewha Womans University. […]
(§3) Quantification of Aβ by ELISA was performed according to the literature of Lee et al. (Lee et al., Neurobiol. Dis. 22, 10-24). […]
(§4) Aβ1-40 peptide and Aβ1-42 peptide concentrations were determined using […] Human β Amyloid Aβ1-40 and Aβ1-42 colorimetric sandwich ELISA kits (Signal Select™, BioSource, Camarillo, Calif., USA).
(§5) A and B respectively show the quantity of insoluble Aβ1-40 (A) and insoluble Aβ1-42 (B) in the prefrontal cortex of a 7.5-month-old Tg-APP/PS1 mouse to which TAMA was administered represented as % mol with respect to when only the vehicle was administered. […]
On the technique in general: In an ELISA, binding on a coated surface is turned into a signal by an enzyme label.

For test [4], the system named is H19-7 cells. Nature of the test: FLIM of single live H19-7 cell in the presence of (Aβ)12 and adamantane derivatives. Type of test: cell-based, rat. The following applies: for aspect ratio of single live cell: H19-7 cell treated with beta amyloid oligomer, FIG. 8; for apoptosis / toxicity of (Aβ)12 on single cell (fluorescence images): H19-7 cell, 33 nM (Aβ)12 plus adamantane derivative, FIG. 7. The method, then:
as §1, with “After centrifugation at 4000 g for 30 minutes, thus obtained 56-kDa Aβ1-42 dodecamer, i.e. (Aβ)12, was concentrated (50 kDa and 100 kDa cut-off). The presence of (Aβ)12 in the concentrated sample was identified by sodium dodecyl sulfate polyacrylamide gel electrophoresis (SDS-PAGE). Its spherical structure was confirmed by atomic force microscopy.” left out
Rat hippocampal H19-7 cells were stored in DMEM containing 10% (v/v) fetal bovine serum (FBS). The cells were cultured to 80% colonies on a culture dish at low concentration in a 35° C. incubator of humidified 5% CO2 atmosphere. For fluorescence lifetime imaging microscopy (FLIM), the cells were cultured for a day after being transferred to a dish equipped with a poly-D-lysine-coated cover glass (MatTek Corporation). Before FLIM measurement, the cells were stained with 3 μM Cell Tracker Green CMFDA (Molecular Probes) solution and then incubated for 30 minutes in serum-free medium.
FLIM is a powerful tool for producing clear images of live cells. FLIM images were obtained at 40 MHz at an excitation wavelength of 467 nm (Picoquant PDL 800-B), using a band pass filter for 500-580 nm and a long pass emission filter for 473 nm (Semlock). A Nikon confocal microscope equipped with an oil-impregnated objective lens (NA 1.3) was used as a platform of an AFM scanner (PSIA). In FLIM measurement, time-correlated single photon counting is very important. […] The measurement was carried out after placing live cells on a poly-d-lysine-coated cover glass bottomed dish (MatTek Corporation) coated with and then filling serum-free medium diluted with PBS buffer.
For FLIM imaging, […] hippocampal cells (H19-7) were labeled with Cell Tracker Green having a relatively small pKa value.
In general, the degree of degeneration of neurons can be qualitatively analyzed based on the change in the aspect ratio of a single cell. The progression of neuronal death could be evaluated from the decrease in the aspect ratio.

Test [5] has as its system Aβ1-42. Kind of test: In vivo test in Tg-APP/PS1 mice, ELISA of insoluble Aβ1-42. More on the design: species or system Tg-APPswe/PS1dE9 mouse. The following applies: single ICV injection of TAMA (1.274 μg), 24 hours, prefrontal cortex, 7.5-month-old mice. As for the experimental part: as §2, §3, §4, §5

T1 sequence (P05067 672-713 limits assumed): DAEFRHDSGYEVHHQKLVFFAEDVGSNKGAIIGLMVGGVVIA

Consider `NCC12CC3(CN)CC(CN)(C1)CC(CN)(C2)C3` [TAMA, 1,3,5,7-Tetrakis(aminomethyl)adamantane], for which, in test [1] (30 nM Aβ oligomer and 200 nM TAMA, N=9), the “fEPSP slope increase with respect to the baseline” value (“fEPSP slope increase” for short) was determined as 170.4±13.72%. Also, in test [1] (200 nM TAMA without Aβ oligomer, N=4), the “fEPSP slope increase” value was determined as 183.2±11.30%. Besides, in test [2], the “change in the CD spectrum of (Aβ)12” value is listed as “negative band near 195 nm” and the “effect of deforming the β-turn structure (rank order)” value (shortened to “effect”) is listed as “TAMA>amantadine>memantine”. The “quantity of insoluble Aβ1-40 relative to vehicle (control) group” value in test [3] is on record as 69.7%. Moreover, the “aspect ratio of single live cell” value in test [4] (after 120 minutes) is “no decrease in the aspect ratio”. For the same compound, the “apoptosis / toxicity of (Aβ)12 on single cell (fluorescence images)” value in test [4] is recorded as “not affected by the toxicity of the oligomer at all”. For the same compound, the “quantity of insoluble Aβ1-42 relative to vehicle (control) group” value in test [5] came out at 87.8%.

In the case of `CC12CC3CC(C)(C1)CC(N)(C3)C2` [memantine], in test [2], the “change in the CD spectrum of (Aβ)12” value is “almost identical to that of the typical β-turn peptide” and the “effect” value is listed as “TAMA>amantadine>memantine”. Also, the “aspect ratio of single live cell” value in test [4] (in 60 minutes) is recorded as 1.0. In test [4], the “apoptosis / toxicity of (Aβ)12 on single cell (fluorescence images)” value is recorded as “comparable to or faster than in the presence of (Aβ)12 only”.

As for “Aβ oligomer: 56-kDa Aβ1-42 dodecamer prepared from synthetic Aβ1-42 peptide; neurotoxic oligomer used as challenge”, in test [1] (30 nM Aβ oligomer solution only, N=9), the “fEPSP slope increase” value amounted to 124.7±5.743%. Also, the “aspect ratio of single live cell” value in test [4] (after 120 minutes) amounted to 1.0.

With `NC12CC3CC(CC(C3)C1)C2` [amantadine, Amantadine], in test [2], the “change in the CD spectrum of (Aβ)12” value is given as “broadening of the positive band from 205 nm to 215 nm” and the “effect” value was “TAMA>amantadine>memantine”.

Source of the values: US20110098360A1, “ADAMANTANE DERIVATIVE FOR INHIBITING TOXICITY OF AMYLOID OLIGOMER” (NANODIAMOND, INC., priority 2008, published 2011).
